Measured values published in the supplement of paper PMC10307832.

Experiments:
Assay in all cases: relative viability (nuclei count vs DMSO), 5 days (fraction); higher = more cells survive
[1] = compound: COC1=CC=C(C=C1)COC2=C(C=C(C=C2)CC3=CN=C(N=C3N)N)OC [GW-2580] + CC(C)C[C@H](NC(=O)[C@H](Cc1ccccc1)NC(=O)c1cnccn1)B(O)O [Bortezomib] (partner 0.002 µM)
Procedure, shortened: (§1)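 Five library-drug doses in √10 steps were combined with a fixed anchor-drug dose, or a single drug was given alone, by pin tool to lung cancer cell lines in 1536-well plates the day after seeding. Nuclei were stained and counted after 5 days. Relative viability is the nuclei count in treated wells over that in vehicle wells, taken as the median of duplicate plates.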

[2] = compound: COC1=CC=C(C=C1)COC2=C(C=C(C=C2)CC3=CN=C(N=C3N)N)OC [GW-2580] + CCNC(=O)c1noc(-c2cc(C(C)C)c(O)cc2O)c1-c1ccc(CN2CCOCC2)cc1 [Luminespib] (partner 0.01 µM)
Procedure, shortened: as §1

[3] = compound: COC1=CC=C(C=C1)COC2=C(C=C(C=C2)CC3=CN=C(N=C3N)N)OC [GW-2580] + Cc1nc(Nc2ncc(C(=O)Nc3c(C)cccc3Cl)s2)cc(N2CCN(CCO)CC2)n1 [Dasatinib] (partner 0.075 µM)
Procedure, shortened: as §1

[4] = compound: COC1=CC=C(C=C1)COC2=C(C=C(C=C2)CC3=CN=C(N=C3N)N)OC [GW-2580] + Nc1nc2[nH]cc(CCc3ccc(C(=O)N[C@@H](CCC(=O)O)C(=O)O)cc3)c2c(=O)[nH]1 [Pemetrexed] (partner 0.2 µM)
Procedure, shortened: as §1

[5] = compound: Cc1cnc(Nc2ccc(OCCN3CCCC3)cc2)nc1Nc1cccc(S(=O)(=O)NC(C)(C)C)c1 [Fedratinib] + CS(=O)(=O)CCNCc1ccc(-c2ccc3ncnc(Nc4ccc(OCc5cccc(F)c5)c(Cl)c4)c3c2)o1 [Lapatinib] (partner 2 µM)
Procedure, shortened: as §1

Cell Line: UMC-11
- relative viability ([1]; first compound 0.08 µM): 0.793
- relative viability ([1]; first compound 0.8 µM): 0.758
- relative viability ([1]; first compound 2.53 µM): 0.788
- relative viability ([1]; first compound 8 µM): 0.603
- relative viability ([2]; first compound 0.08 µM): 0.992
- relative viability ([2]; first compound 0.8 µM): 1.1
- relative viability ([2]; first compound 2.53 µM): 1.12
- relative viability ([2]; first compound 8 µM): 1.16
- relative viability ([3]; first compound 0.08 µM): 0.572
- relative viability ([3]; first compound 0.8 µM): 0.508
- relative viability ([3]; first compound 2.53 µM): 0.441
- relative viability ([3]; first compound 8 µM): 0.62
- relative viability ([4]; first compound 0.08 µM): 0.948
- relative viability ([4]; first compound 0.8 µM): 0.939
- relative viability ([4]; first compound 2.53 µM): 0.754
- relative viability ([4]; first compound 8 µM): 0.718
- relative viability ([5]; first compound 0.1 µM): 0.825
- relative viability ([5]; first compound 0.3162 µM): 1.08
- relative viability ([5]; first compound 1 µM): 0.284
